Laboratory results from patent US9000045B2, “CETP activity inhibitors” (Japan Tobacco Inc., priority 1997, dated 2015).

Target: T1, CETP (Homo sapiens, UniProt P11597)
T1 sequence (P11597 18-493): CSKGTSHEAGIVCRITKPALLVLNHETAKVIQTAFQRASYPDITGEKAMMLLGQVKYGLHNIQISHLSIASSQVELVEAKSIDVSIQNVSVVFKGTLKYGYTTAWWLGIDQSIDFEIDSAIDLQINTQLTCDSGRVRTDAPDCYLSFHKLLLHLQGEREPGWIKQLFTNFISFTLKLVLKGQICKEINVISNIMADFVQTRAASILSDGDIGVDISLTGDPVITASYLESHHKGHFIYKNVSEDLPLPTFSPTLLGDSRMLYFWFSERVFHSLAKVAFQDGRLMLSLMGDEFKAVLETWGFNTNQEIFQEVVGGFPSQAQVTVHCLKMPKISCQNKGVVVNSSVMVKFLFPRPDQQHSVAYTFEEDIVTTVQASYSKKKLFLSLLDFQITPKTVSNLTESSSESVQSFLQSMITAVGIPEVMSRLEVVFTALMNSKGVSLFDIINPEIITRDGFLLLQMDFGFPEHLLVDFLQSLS
Experiment: In vitro CETP activity inhibitory effect in whole plasma
Format: biochemical
Design: Plasma containing [^3H]CE-HDL3 (600,000 dpm/ml) was prepared by adding donor lipoprotein obtained in the above (1) to plasma from healthy subjects; from tissue; host or cells: whole plasma of healthy subjects
Settings: plasma from healthy subjects containing [3H]CE-HDL3, incubated 4 hours at 37° C.; read-out: CETP activity inhibition in whole plasma IC50
Protocol: The fraction thus obtained was dialyzed against a PBS solution [10 mM Na2HPO4/10 mM NaH2PO4/0.15 M NaCl/1 mM EDTA (pH 7.4)]. Then, tritium-labeled cholesterol (10 nM) (50.3 Ci/mM) was dissolved in 95% ethanol and added gradually to the above HDL3 fraction under stirring. The solution was incubated for 18 hours at 37° C. […] After incubation, KBr was added and specific gravity was adjusted to d=1.21 g/ml. […] A sample solution was prepared using a 1:1 solution of N-methylpyrrolidone and polyethyleneglycol 400 as a solvent. […] Based on the inhibition rate (%) of CETP activity, IC50 value of each sample was calculated.

IC50	SMILES
20 µM	CC(C)(C)C(=O)Nc1ccccc1SSc1ccccc1NC(=O)C(C)(C)C [Example 1, bis-[2-(pivaloylamino)phenyl]disulfide]
41 µM	CC(C)C(=O)Nc1ccccc1SSc1ccccc1NC(=O)C(C)C [Example 1-1]
25 µM	CCCCC(=O)Nc1ccccc1SSc1ccccc1NC(=O)CCCC [Example 1-2]
22 µM	O=C(Nc1ccccc1SSc1ccccc1NC(=O)C1CCCCC1)C1CCCCC1 [Example 1-6]
24 µM	O=C(Nc1ccccc1SSc1ccccc1NC(=O)c1ccncc1)c1ccncc1 [Example 1-7]
21 µM	CCCCC(=O)Nc1ccccc1SSc1ccccc1NC(=O)CCCC [Example 1-8]
12 µM	O=C(Nc1ccccc1SSc1ccccc1NC(=O)C12CC3CC(CC(C3)C1)C2)C12CC3CC(CC(C3)C1)C2 [Example 1-12]
18 µM	CC(C)(C)C1CCC(C(=O)Nc2ccccc2SSc2ccccc2NC(=O)C2CCC(C(C)(C)C)CC2)CC1 (stereo not drawn) [Example 1-13]
101 µM	O=C(Nc1ccccc1SSc1ccccc1NC(=O)c1ccccc1)c1ccccc1 [Example 3]
175 µM	O=C(Nc1ccccc1SSc1ccccc1NC(=O)c1cccs1)c1cccs1 [Example 4]
3 µM	CCCC(CCC)C(=O)Nc1ccccc1SSc1ccccc1NC(=O)C(CCC)CCC [Example 5]
5 µM	CC1(C(=O)Nc2ccccc2SSc2ccccc2NC(=O)C2(C)CCCCC2)CCCCC1 [Example 6]
2 µM	CC(C)CCC1(C(=O)Nc2ccccc2SSc2ccccc2NC(=O)C2(CCC(C)C)CCCC2)CCCC1 [Example 7]
99 µM	CC(C)(C)C(=O)Nc1ccccc1S [Example 9, N-(2-mercaptophenyl)-2,2-dimethylpropioneamide]
17 µM	CC1(C(=O)Nc2ccccc2S)CCCCC1 [Example 12]
5 µM	CC(C)CCC1(C(=O)Nc2ccccc2S)CCCC1 [Example 13]
12 µM	CCC1(C(=O)Nc2ccccc2S)CCCCC1 [Example 15]
8 µM	CCCC1(C(=O)Nc2ccccc2S)CCCCC1 [Example 16]
8 µM	CCCCC1(C(=O)Nc2ccccc2S)CCCCC1 [Example 17]
6 µM	CC(C)CC1(C(=O)Nc2ccccc2S)CCCCC1 [Example 18, N-(2-mercaptophenyl)-1-isobutylcyclohexanecarboxamide]
179 µM	COc1ccc(S)c(NC(=O)C2(C)CCCCC2)c1 [Example 19, N-(2-mercapto-5-methoxyphenyl)-1-methylcyclohexanecarboxamide]
19 µM	CC1(C(=O)Nc2cc(F)ccc2S)CCCCC1 [Example 19-1]
33 µM	Cc1ccc(S)c(NC(=O)C2(C)CCCCC2)c1 [Example 19-2]
17 µM	CC1(C(=O)Nc2cc(F)c(F)cc2S)CCCCC1 [Example 19-5]

IC50	SMILES
18 µM	CC1(C(=O)Nc2ccc(F)cc2S)CCCCC1 [Example 19-6]
16 µM	CC(C)CCC1(C(=O)Nc2cc(Cl)c(Cl)cc2S)CCCCC1 [Example 20]
9 µM	CC(C)CCC1(C(=O)Nc2cc(Cl)c(Cl)cc2S)CCCC1 [Example 21]
32 µM	CC(C)(C)C(=O)Nc1ccccc1SC(=O)C1CCCCC1 [Example 25-4]
46 µM	CC(C)(C)C(=O)Nc1ccccc1SC(=O)Cc1ccccc1[N+](=O)[O-] [Example 25-7]
25 µM	CC(C)(C)C(=O)Nc1ccccc1SC(=O)Cc1cccc([N+](=O)[O-])c1 [Example 25-8]
33 µM	CC(C)(C)C(=O)Nc1ccccc1SC(=O)CCCc1ccccc1 [Example 25-12]
28 µM	CC(C)(C)C(=O)Nc1ccccc1CC(=O)Sc1ccccc1NC(=O)C(C)(C)C [Example 25-13]
30 µM	CC(C)(C)C(=O)Nc1ccccc1SC(=O)CCc1ccccc1 [Example 25-14]
41 µM	CC1(C(=O)Nc2ccccc2SC(=O)CC2CCCCC2)CCCCC1 [Example 25-16]
23 µM	CC1(C(=O)Nc2ccccc2SC(=O)Cc2ccccc2)CCCCC1 [Example 25-17]
19 µM	CC(C)(C)C(=O)Nc1ccccc1CC(=O)Sc1ccccc1NC(=O)C1(C)CCCCC1 [Example 25-18]
22 µM	CC1(C(=O)Nc2ccccc2CC(=O)Sc2ccccc2NC(=O)C2(C)CCCCC2)CCCCC1 [Example 25-19]
48 µM	CC(C)(C)C(=O)Nc1ccccc1SC(=O)Cc1ccccc1NC(=O)C1(C)CCCCC1 [Example 25-20]
28 µM	CC1(C(=O)Nc2ccccc2SC(=O)Cc2ccc(Cl)cc2)CCCCC1 [Example 25-21]
27 µM	CC1(C(=O)Nc2ccccc2SC(=O)Cc2cccc(Cl)c2)CCCCC1 [Example 25-22]
25 µM	CC1(C(=O)Nc2ccccc2SC(=O)Cc2ccccc2Cl)CCCCC1 [Example 25-23]
24 µM	CC1(C(=O)Nc2ccccc2SC(=O)Cc2ccc3ccccc3c2)CCCCC1 [Example 25-25]
22 µM	CC1(C(=O)Nc2ccccc2SC(=O)Cc2ccc(-c3ccccc3)cc2)CCCCC1 [Example 25-26]
21 µM	CC1(C(=O)Nc2ccccc2SC(=O)c2cccnc2)CCCCC1 [Example 25-27]
21 µM	CC1(C(=O)Nc2ccccc2SC(=O)Cc2cccs2)CCCCC1 [Example 25-28]
21 µM	CC1(C(=O)Nc2cccc(CC(=O)Sc3ccccc3NC(=O)C3(C)CCCCC3)c2)CCCCC1 [Example 25-30]
21 µM	CC(=O)Nc1cccc(CC(=O)Sc2ccccc2NC(=O)C2(C)CCCCC2)c1 [Example 25-31]
20 µM	CC(=O)N[C@@H](Cc1ccccc1)C(=O)Sc1ccccc1NC(=O)C1(C)CCCCC1 [Example 25-32]

IC50	SMILES
18 µM	CC(=O)NCC(=O)Sc1ccccc1NC(=O)C1(C)CCCCC1 [Example 25-33]
21 µM	CC(C)(C)OC(=O)Nc1ccccc1CC(=O)Sc1ccccc1NC(=O)C1(C)CCCCC1 [Example 25-34]
27 µM	CC(=O)N[C@@H](CC(C)C)C(=O)Sc1ccccc1NC(=O)C1(C)CCCCC1 [Example 25-35]
30 µM	CC(=O)N[C@@H](Cc1ccc(O)cc1)C(=O)Sc1ccccc1NC(=O)C1(C)CCCCC1 [Example 25-36]
24 µM	CC(=O)N1CCC[C@H]1C(=O)Sc1ccccc1NC(=O)C1(C)CCCCC1 [Example 25-37]
20 µM	CC(=O)N[C@@H](C(=O)Sc1ccccc1NC(=O)C1(C)CCCCC1)c1ccccc1 [Example 25-38]
22 µM	CC(=O)N[C@H](C(=O)Sc1ccccc1NC(=O)C1(C)CCCCC1)c1ccccc1 [Example 25-39]
23 µM	CC1(C(=O)Nc2ccccc2SC(=O)[C@H](NC(=O)c2ccccc2)c2ccccc2)CCCCC1 [Example 25-40]
26 µM	CC1(C(=O)Nc2ccccc2SC(=O)[C@H](NC(=O)C2(C)CCCCC2)c2ccccc2)CCCCC1 [Example 25-41]
22 µM	CC1(C(=O)Nc2ccccc2SC(=O)[C@H](N)c2ccccc2)CCCCC1 [Example 25-42]
9 µM	CC(=O)N[C@@H](C)C(=O)Sc1ccccc1NC(=O)C1(CCC(C)C)CCCCC1 [Example 25-44]
29 µM	CC(C)CCC1(C(=O)Nc2ccccc2SC(=O)C(c2ccccc2)c2ccccc2)CCCCC1 [Example 25-47]
23 µM	CC(C)CCC1(C(=O)Nc2ccccc2SC(=O)c2ccc(C(=O)Sc3ccccc3NC(=O)C3(CCC(C)C)CCCCC3)cc2)CCCCC1 [Example 25-48]
6 µM	CC(C)CCC1(C(=O)Nc2ccccc2SC(=O)[C@@H]2CCC(=O)N2)CCCCC1 [Example 25-54]
10 µM	CC(C)CCC1(C(=O)Nc2ccccc2SC(=O)[C@@H]2CCCN2C(=O)c2ccccc2)CCCCC1 [Example 25-55]
5 µM	CC(C)CCC1(C(=O)Nc2ccccc2SC(=O)c2cccnc2)CCCC1 [Example 25-60]
20 µM	CC(C)CCC1(C(=O)Nc2ccccc2SC(=O)C2CCCCC2)CCCC1 [Example 25-64]
9 µM	CC(C)CCC1(C(=O)Nc2ccccc2SC(=O)C2CCN(C)CC2)CCCC1 [Example 25-65]
35 µM	CC1(C(=O)Nc2cc(C(F)(F)F)ccc2SC(=O)Cc2ccccc2)CCCCC1 [Example 25-66]
40 µM	CC(C)(C)C(=O)Sc1ccc(C(F)(F)F)cc1NC(=O)C1(C)CCCCC1 [Example 25-67]
27 µM	CC(C)(C)C(=O)Sc1cc(F)c(F)cc1NC(=O)C1(C)CCCCC1 [Example 25-72]
36 µM	CC(=O)N[C@@H](Cc1ccccc1)C(=O)Sc1cc(Cl)c(Cl)cc1NC(=O)C1(CCC(C)C)CCCCC1 [Example 25-76]
7 µM	CC(C)CCC1(C(=O)Nc2cc(Cl)c(Cl)cc2SC(=O)c2cccnc2)CCCCC1 [Example 25-77]
11 µM	CC(C)CCC1(C(=O)Nc2cc(Cl)c(Cl)cc2SC(=O)C2CCN(C)CC2)CCCCC1 [Example 25-78]
